What was measured:
ECHCG [1] = test: greenhouse pre-emergence herbicidal test; format: in vivo, Echinocloa crus-galli; details: pre-emergence method, scale from 0 to 100
Description: (§1) The seeds of the test plants were sown separately for each species. For the pre-emergence treatment, the active ingredients, which had been suspended or emulsified in water, were applied directly after sowing by means of finely distributing nozzles. The containers were irrigated gently to promote germination and growth and subsequently covered with transparent plastic hoods until the plants had rooted. This cover caused uniform germination of the test plants, unless this had been impaired by the active ingredients. Depending on the species, the plants were kept at 10-25° C. or 20-35° C., respectively. The test period extended over 2 to 4 weeks. During this time, the plants were tended, and their response to the individual treatments was evaluated. Evaluation was carried out using a scale from 0 to 100. 100 means no emergence of the plants, or complete destruction of at least the aerial moieties, and 0 means no damage, or normal course of growth. […] The plants used in the greenhouse experiments were of the following species: [table]

ALOMY = test: greenhouse post-emergence herbicidal test; format: in vivo, Alopercurus myosuroides; details: post-emergence method, scale from 0 to 100
Description: (§2) The seeds of the test plants were sown separately for each species. For the post-emergence treatment, the test plants were first grown to a height of 3 to 15 cm, depending on the plant habit, and only then treated with the active ingredients which had been suspended or emulsified in water. For this purpose, the test plants were either sown directly and grown in the same containers, or they were first grown separately as seedlings and transplanted into the test containers a few days prior to treatment. Depending on the species, the plants were kept at 10-25° C. or 20-35° C., respectively. The test period extended over 2 to 4 weeks. During this time, the plants were tended, and their response to the individual treatments was evaluated. Evaluation was carried out using a scale from 0 to 100. 100 means no emergence of the plants, or complete destruction of at least the aerial moieties, and 0 means no damage, or normal course of growth. […] The plants used in the greenhouse experiments were of the following species: [table]

APESV = test: greenhouse pre-emergence herbicidal test; format: in vivo, Apera spica-venti; details: pre-emergence method, scale from 0 to 100
Description: as §1

AVEFA = test: greenhouse post-emergence herbicidal test; format: in vivo, Avena fatua; details: post-emergence method, scale from 0 to 100
Description: as §2

ECHCG [2] = test: greenhouse post-emergence herbicidal test; format: in vivo, Echinocloa crus-galli; details: post-emergence method, scale from 0 to 100
Description: as §2

Compound | herbicidal activity against ECHCG (ECHCG [1]; application rate 500 g/ha) | herbicidal activity against ALOMY (ALOMY; application rate 500 g/ha) | herbicidal activity against APESV (APESV; application rate 500 g/ha) | herbicidal activity against AVEFA (AVEFA; application rate 500 g/ha) | herbicidal activity against APESV (APESV; application rate 1000 g/ha) | herbicidal activity against AVEFA (AVEFA; application rate 1000 g/ha) | other results
COC(=O)c1nc(C2CC2)ncc1-c1ccc(F)cc1F [example 192] | very good (a very good herbicidal activity is given at values of at least 85) | very good (a very good herbicidal activity is given at values of at least 85) | very good (a very good herbicidal activity is given at values of at least 85) | very good (a very good herbicidal activity is given at values of at least 85) | – | – | –
CC(C)OC(=O)CSC(=O)c1nc(C2CC2)ncc1-c1ccccc1Cl [example 279] | very good (a very good herbicidal activity is given at values of at least 85) | – | very good (a very good herbicidal activity is given at values of at least 85) | very good (a very good herbicidal activity is given at values of at least 85) | – | – | –
COC(=O)c1nc(C(F)(F)F)ncc1-c1ccccc1Cl [example 316] | – | – | – | – | good (A good herbicidal activity is given at values of at least 70) | good (A good herbicidal activity is given at values of at least 70) | herbicidal activity against ECHCG (ECHCG [1]; application rate 1000 g/ha): good (A good herbicidal activity is given at values of at least 70)
COC(=O)c1nc(C2CC2)ncc1-c1ccc(F)cc1C#N [example 220] | – | very good (a very good herbicidal activity is given at values of at least 85) | very good (a very good herbicidal activity is given at values of at least 85) | very good (a very good herbicidal activity is given at values of at least 85) | – | – | –
COC(=O)c1nc(C2CC2)ncc1-c1c(F)cc(Cl)cc1Cl [example 194] | – | good (A good herbicidal activity is given at values of at least 70) | good (A good herbicidal activity is given at values of at least 70) | very good (a very good herbicidal activity is given at values of at least 85) | – | – | –
COc1ccc(CSC(=O)c2nc(C3CC3)ncc2-c2ccccc2Cl)cc1 [example 282] | – | – | very good (a very good herbicidal activity is given at values of at least 85) | very good (a very good herbicidal activity is given at values of at least 85) | – | – | –
COC(=O)c1nc(C2CC2)ncc1-c1cc(F)ccc1C#N [example 218] | very good (a very good herbicidal activity is given at values of at least 85) | – | very good (a very good herbicidal activity is given at values of at least 85) | very good (a very good herbicidal activity is given at values of at least 85) | – | – | herbicidal activity against ECHCG (ECHCG [2]; application rate 500 g/ha): very good (a very good herbicidal activity is given at values of at least 85)
COC(=O)c1nc(C2CC2)ncc1-c1c(Cl)cc(Cl)cc1Cl [example 209] | – | – | – | – | very good (a very good herbicidal activity is given at values of at least 85) | very good (a very good herbicidal activity is given at values of at least 85) | herbicidal activity against ALOMY (ALOMY; application rate 1000 g/ha): very good (a very good herbicidal activity is given at values of at least 85)
COC(=O)c1nc(C2CC2)ncc1-c1ccc(C)cc1C [example 231] | – | – | – | – | very good (a very good herbicidal activity is given at values of at least 85) | – | herbicidal activity against ECHCG (ECHCG [1]; application rate 1000 g/ha): very good (a very good herbicidal activity is given at values of at least 85); herbicidal activity against ALOMY (ALOMY; application rate 1000 g/ha): good (A good herbicidal activity is given at values of at least 70); herbicidal activity against ECHCG (ECHCG [2]; application rate 1000 g/ha): good (A good herbicidal activity is given at values of at least 70)
COC(=O)c1nc(C2CC2)ncc1-c1cc(OC)ccc1C [example 229] | very good (a very good herbicidal activity is given at values of at least 85) | good (A good herbicidal activity is given at values of at least 70) | very good (a very good herbicidal activity is given at values of at least 85) | – | – | – | herbicidal activity against ECHCG (ECHCG [2]; application rate 500 g/ha): very good (a very good herbicidal activity is given at values of at least 85)
COC(=O)c1nc(C2CC2)ncc1-c1ccccc1C#N [example 217] | very good (a very good herbicidal activity is given at values of at least 85) | good (A good herbicidal activity is given at values of at least 70) | very good (a very good herbicidal activity is given at values of at least 85) | – | – | – | herbicidal activity against ECHCG (ECHCG [2]; application rate 500 g/ha): very good (a very good herbicidal activity is given at values of at least 85)
O=C(OC1CC1)c1nc(C2CC2)ncc1-c1ccccc1Cl [example 262] | very good (a very good herbicidal activity is given at values of at least 85) | – | very good (a very good herbicidal activity is given at values of at least 85) | good (A good herbicidal activity is given at values of at least 70) | – | – | –
COC(=O)c1nc(C2CC2)ncc1-c1ccccc1SC(F)(F)F [example 321] | – | – | – | – | – | herbicidal activity | –
O=C(O)c1nc(C2CC2)ncc1-c1c(Cl)cc(Cl)cc1Cl [example 149] | – | – | – | – | very good (a very good herbicidal activity is given at values of at least 85) | very good (a very good herbicidal activity is given at values of at least 85) | herbicidal activity against ALOMY (ALOMY; application rate 1000 g/ha): very good (a very good herbicidal activity is given at values of at least 85)
CCSC(=O)c1nc(C2CC2)ncc1-c1ccccc1Cl [example 291] | very good (a very good herbicidal activity is given at values of at least 85) | – | very good (a very good herbicidal activity is given at values of at least 85) | very good (a very good herbicidal activity is given at values of at least 85) | – | – | herbicidal activity against ECHCG (ECHCG [2]; application rate 500 g/ha): very good (a very good herbicidal activity is given at values of at least 85)
Cc1ccc(C)c(-c2cnc(C3CC3)nc2C(=O)O)c1 [example 165] | – | very good (a very good herbicidal activity is given at values of at least 85) | very good (a very good herbicidal activity is given at values of at least 85) | very good (a very good herbicidal activity is given at values of at least 85) | – | – | –
CC(C)OC(=O)c1nc(C2CC2)ncc1-c1ccccc1Cl [example 252] | – | – | – | – | – | very good (a very good herbicidal activity is given at values of at least 85) | herbicidal activity against ECHCG (ECHCG [1]; application rate 1000 g/ha): very good (a very good herbicidal activity is given at values of at least 85); herbicidal activity against ALOMY (ALOMY; application rate 1000 g/ha): very good (a very good herbicidal activity is given at values of at least 85)
COC(=O)COC(=O)c1nc(C2CC2)ncc1-c1ccccc1Cl [example 261] | – | – | – | – | very good (a very good herbicidal activity is given at values of at least 85) | – | herbicidal activity against ECHCG (ECHCG [1]; application rate 1000 g/ha): very good (a very good herbicidal activity is given at values of at least 85); herbicidal activity against ALOMY (ALOMY; application rate 1000 g/ha): very good (a very good herbicidal activity is given at values of at least 85); herbicidal activity against ECHCG (ECHCG [2]; application rate 1000 g/ha): very good (a very good herbicidal activity is given at values of at least 85)
COc1ccc(C)c(-c2cnc(C3CC3)nc2C(=O)O)c1 [example 166] | very good (a very good herbicidal activity is given at values of at least 85) | good (A good herbicidal activity is given at values of at least 70) | very good (a very good herbicidal activity is given at values of at least 85) | – | – | – | herbicidal activity against ECHCG (ECHCG [2]; application rate 500 g/ha): good (A good herbicidal activity is given at values of at least 70)
N#Cc1cc(F)ccc1-c1cnc(C2CC2)nc1C(=O)O [example 157] | – | – | – | – | very good (a very good herbicidal activity is given at values of at least 85) | very good (a very good herbicidal activity is given at values of at least 85) | herbicidal activity against ALOMY (ALOMY; application rate 1000 g/ha): very good (a very good herbicidal activity is given at values of at least 85)
COC(=O)c1nc(C2CC2)ncc1-c1ccccc1C(F)(F)F [example 239] | – | – | – | – | very good (a very good herbicidal activity is given at values of at least 85) | very good (a very good herbicidal activity is given at values of at least 85) | herbicidal activity against ECHCG (ECHCG [1]; application rate 1000 g/ha): very good (a very good herbicidal activity is given at values of at least 85)
